The numbers were not newly measured in patent publication US20250107560A1, “CHRONOBIOLOGICAL FOOD FOR INFANTS AND METHOD FOR PRODUCING SAME” (priority 2022, published 2025), which cites them from elsewhere.

The conditions of data set [1]: unlike D-tryptophan.
Another data set deals with carrier albumin (Homo sapiens, UniProt P02768). As to conditions: compared with D-tryptophan.
Chain of carrier albumin (P02768 25-609): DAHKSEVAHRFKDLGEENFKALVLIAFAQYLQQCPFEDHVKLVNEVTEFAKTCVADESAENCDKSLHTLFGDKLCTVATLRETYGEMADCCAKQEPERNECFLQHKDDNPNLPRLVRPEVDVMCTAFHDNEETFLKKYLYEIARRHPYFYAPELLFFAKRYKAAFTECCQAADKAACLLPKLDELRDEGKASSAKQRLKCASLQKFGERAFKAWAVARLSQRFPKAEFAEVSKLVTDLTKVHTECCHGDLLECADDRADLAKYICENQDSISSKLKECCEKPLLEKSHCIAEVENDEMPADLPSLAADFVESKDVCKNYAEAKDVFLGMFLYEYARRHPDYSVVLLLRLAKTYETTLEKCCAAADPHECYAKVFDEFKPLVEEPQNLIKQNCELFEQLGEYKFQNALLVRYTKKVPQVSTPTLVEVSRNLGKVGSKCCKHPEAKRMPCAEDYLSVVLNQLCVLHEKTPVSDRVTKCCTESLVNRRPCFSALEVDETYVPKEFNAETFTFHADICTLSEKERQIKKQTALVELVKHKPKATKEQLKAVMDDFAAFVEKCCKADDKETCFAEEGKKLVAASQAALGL

Turning to `N[C@@H](Cc1c[nH]c2ccccc12)C(=O)O` [L-tryptophan], the toxicity result in data set [1] was “non-toxic”. The “binding to the carrier albumin, relative to D-tryptophan” value on carrier albumin was 100 times.

In the case of `COc1ccc2[nH]cc(CCNC(C)=O)c2c1` [Melatonin, melatonin], the biological half-life (in vivo) is recorded as 30-45 minutes. Besides, for the setting “metabolized in the liver”, the “excreted in the urine as 6-sulfatoxymelatonin” value was “approx. 95%”.
